Data as given in ChEMBL document CHEMBL1156817, “Fructose-1,6-bisphosphatase Inhibitors. 2. Design, synthesis, and structure-activity relationship of a series of phosphonic acid containing benzimidazoles that function as 5'-adenosinemonophosphate (AMP) mimics” (J Med Chem, 2010).
The source made the active and inactive calls. The calls are words filed in the database; no cut-off is given here.

Tests used:
[1] = test system: Hepatocyte; assay: Inhibition of glucose production in rat primary hepatocytes at 100 uM; format: functional, cell-based
[2] = Oral bioavailability in 18 hrs fasted normal Sprague-Dawley rat up to 100 mg/kg by urinary excretion assay; format: ADME, organism-based; settings: urine
[3] = test system: Rattus norvegicus; assay: Reduction of blood glucose level in 5 hrs fasted ZDF rat at 10 mg/kg, iv administered every 1 hr for 6 hrs; format: functional, organism-based; parameters: dose 10 mg/kg
[4] = test system: Hepatocyte; assay: Inhibition of glucose production in rat primary hepatocytes at 10 uM; format: functional, cell-based
[5] = target: Adenosine kinase (Homo sapiens, UniProt P55263); assay: Inhibition of adenosine kinase AMP binding site
[6] = Inhibition of adenylate kinase AMP binding site
[7] = Activation of glycogen phosphorylase AMP binding site
[8] = test system: Rattus norvegicus; assay: Reduction of blood glucose level in 18 hrs fasted normal Sprague-Dawley rat at 10 mg/kg, iv after 1 hr interval; format: functional; parameters: scale not given: the % may be the effect or the level left
[9] = target: T1, ATP-dependent 6-phosphofructokinase, muscle type (Homo sapiens, UniProt P08237); assay: Activation of phosphofructokinase AMP binding site
T1 sequence (P08237 whole entry): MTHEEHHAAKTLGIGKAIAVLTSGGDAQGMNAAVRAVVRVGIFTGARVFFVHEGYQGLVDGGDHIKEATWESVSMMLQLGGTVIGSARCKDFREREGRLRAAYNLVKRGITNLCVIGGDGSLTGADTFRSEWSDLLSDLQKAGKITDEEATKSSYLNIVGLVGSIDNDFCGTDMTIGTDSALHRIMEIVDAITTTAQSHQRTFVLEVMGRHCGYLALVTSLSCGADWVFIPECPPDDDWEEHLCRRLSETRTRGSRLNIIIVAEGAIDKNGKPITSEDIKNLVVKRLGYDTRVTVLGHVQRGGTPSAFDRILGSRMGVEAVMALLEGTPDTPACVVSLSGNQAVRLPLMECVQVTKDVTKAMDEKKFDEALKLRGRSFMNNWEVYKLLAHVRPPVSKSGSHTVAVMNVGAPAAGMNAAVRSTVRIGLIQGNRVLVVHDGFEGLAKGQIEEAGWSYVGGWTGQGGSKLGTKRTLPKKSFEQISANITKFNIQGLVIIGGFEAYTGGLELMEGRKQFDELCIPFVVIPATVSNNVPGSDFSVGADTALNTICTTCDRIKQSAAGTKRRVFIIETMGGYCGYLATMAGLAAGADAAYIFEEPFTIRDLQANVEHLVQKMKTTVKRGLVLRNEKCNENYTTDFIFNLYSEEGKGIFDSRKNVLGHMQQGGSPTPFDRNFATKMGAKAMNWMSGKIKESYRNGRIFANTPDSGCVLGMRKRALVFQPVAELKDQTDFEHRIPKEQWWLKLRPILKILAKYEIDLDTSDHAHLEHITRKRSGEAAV

Sequence of Adenosine kinase (P55263 whole entry): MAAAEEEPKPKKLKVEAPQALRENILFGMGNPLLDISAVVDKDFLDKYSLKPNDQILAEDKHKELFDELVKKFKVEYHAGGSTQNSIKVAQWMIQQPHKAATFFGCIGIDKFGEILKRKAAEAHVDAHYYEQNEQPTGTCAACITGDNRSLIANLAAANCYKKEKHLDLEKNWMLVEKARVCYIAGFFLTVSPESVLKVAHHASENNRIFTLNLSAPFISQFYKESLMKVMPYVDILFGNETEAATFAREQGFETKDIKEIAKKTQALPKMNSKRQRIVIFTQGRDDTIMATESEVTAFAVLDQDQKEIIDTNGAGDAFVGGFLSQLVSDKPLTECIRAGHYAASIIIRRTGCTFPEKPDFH

bioavailability [2]: 1% | IC50 [5]: > 100 µM | IC50 [6]: > 100 µM | EC50 [7]: > 100 µM | EC50 [9]: > 100 µM
Compound: CCc1cc(F)c(N)c2nc(-c3ccc(P(=O)(O)O)o3)n(CC(C)C)c12
Activity [1]: Active | Activity [3]: Active | Activity [4]: Active | Activity [8]: 64%
